This is an account of results in US20220168430A1, “THERAPEUTIC METHODS FOR TREATING HEPATITIS B” (priority 2019, published 2022).

Like-named read-outs stand apart in the source and are kept apart here.

For orientation: EC50 means the concentration at which the effect is half-maximal.

This test has as its system HBV DNA. The test is described as follows: HBV DNA by branched DNA assay in HepG2.2.15 cells, two-compound combinations (Examples 13-14). Format: cell-based, HBV; HepG2.2.15 (human hepatoblastoma). Conditions: for MacSynergy Volume Calculations, 99.99% confidence interval (Bonferroni Adj. 96%): Cmpd 2 μM: 0.01, 0.0032, 0.001, 0.0003, 0.0001, 0; for EC50: Hepatitis B virus, HepG2.2.15, HepG2.2.15, bDNA quantitation, read-out: Inhibitor B EC50. The method, then: In vitro combination studies were conducted using the method of Prichard and Shipman (Prichard M N, and Shipman C Jr., Antiviral Research, 1990, 14(4-5), 181-205; and Prichard M N, et. al., MacSynergy II). The HepG2.2.15 cell culture system is a cell line derived from human hepatoblastoma HepG2 cells, which have been stably transfected with the adw2-subtype HBV genome as previously explained in Sells et al. (Proc. Natl. Acad. Sci. U. S. A, 1987. Vol 84:1005-1009). HepG2.2.15 cells secrete Dane-like viral particles, produce HBV DNA, and produce the viral proteins, HBeAg and HBsAg.
Although inhibition of HBV DNA, RNA and proteins can be determined in the presence of these inhibitors, we used the branched DNA assay due to its ability to quantitatively measure the level HBV DNA.
Detection of HBV DNA. The branched DNA assay (bDNA) was used to determine the effect of compound combinations on HBV DNA. HepG2.2.15 (10,000 cells/well) were cultured in DMEM medium plus supplements as described above. The next day, the cells were replenished with fresh medium followed by the addition of Inhibitor A and B, both were dissolved in 100% DMSO. The microtiter cell plates were incubated for a total duration of 6 days at 37° C. without replenishing media or compound. The serial dilutions spanned concentration ranges respective to the EC50 value of each compound. In addition to combination testing of the compounds, both inhibitors A and B were also tested singly.
The level of bDNA present in the inhibitor-treated supernatant wells was measured using a Quantigene 2.0 bDNA assay kit (Affymetrix, Santa Clara, Calif.) with HBV specific custom probe set (genotype D ayw; DF-10739) and manufacturer's instructions after performing a proteinase K digestion in lysis. The plates were read using a Victor luminescence plate reader (PerkinElmer Model 1420 Multilabel counter) and the RLU data generated from each well was calculated as inhibition of the untreated control wells. The data was analyzed using the interpretive guidelines established by Prichard and Shipman combination model using the MacSynergy II program (Prichard M N, Shipman C Jr. Antiviral Research, 1990. Vol 14(4-5):181-205; Prichard M N, Aseltine KR, and Shipman, C. MacSynergy II. University of Michigan 1992) to determine whether the combinations were synergistic, additive or antagonistic using the interpretive guidelines established by Prichard and Shipman as follows: synergy volumes <25 μM2% (log volume <2) at 95% CI=probably insignificant; 25-50 (log volume >2 and <5)=minor but significant 50-100 (log volume >5 and <9)=moderate, may be important in vivo; Over 100 (log volume >9)=strong synergy, probably important in vivo; volumes approaching 1000 (log volume >90)=unusually high, check data. The RLU data from the single compound treated cells were analyzed using XL-Fit module in Microsoft Excel to determine EC50 values using a 4-parameter curve fitting algorithm.

Turning to `COCCCOc1cc2c(nc1OC)-c1cc(=O)c(C(=O)O)cn1[C@H](C(C)C)C2` [Compound 2], the “MacSynergy Volume Calculations, 99.99% confidence interval (Bonferroni Adj. 96%)” value by setting is: (ETV 0 μM) 0.00; (TAF 0 μM) 0. Moreover, the EC50 is, setting by setting: (study with ETV as Inhibitor A) 0.9 nM; (study with TAF as Inhibitor A) 0.6 nM.
